These results are taken from patent US11291672B2, “Betamethasone oral spray formulation and method of use to treat ataxia” (GRACE THERAPEUTICS LLC, priority 2016, dated 2022).

For data set [1] the following is noted: cited from earlier work.
Data set [2] is described as follows: Solubility in purified water. Particulars: vortex 5 minutes.
Excerpt: Respective salt and base forms of betamethasone and dexamethasone were weighed and transferred in the glass test tube.
The conditions of data set [3]: comparison among glucocorticoids; cited from earlier work.
In data set [4] the test system is ataxia symptoms in children with AT. Particulars: cited from earlier work.
Data set [5] concerns neurological symptoms in ataxia telangiectasia. As to conditions: 0.1 mg/kg/day, cited from earlier work.

Take `C[C@H]1CC2C3CCC4=CC(=O)C=C[C@]4(C)[C@@]3(F)[C@@H](O)C[C@]2(C)[C@@]1(O)C(=O)COP(=O)(O)O` (stereo partly drawn) [Betamethasone disodium phosphate, 9-Fluoro-11β,17,21-trihydroxy-16β-methylpregna-1,4-diene-3,20-dione 21-(disodium phosphate)]: the “solubility (in words)” value in data set [1] was “soluble”. Besides, the “stability in aqueous solution” value in data set [1] (strongly influenced by storage temperature) is reported as “very low”. The “Solubility in purified water” value in data set [2] (Concentration 0.25 mg/0.14 ml), in data set [2] (Concentration 0.50 mg/0.14 ml), in data set [2] (Concentration 1.00 mg/0.14 ml), in data set [2] (Concentration 1.50 mg/0.14 ml), in data set [2] (Concentration 2.00 mg/0.14 ml) and in data set [2] (Concentration 4.00 mg/0.14 ml) was “Soluble” each time. The “Solubility in purified water” value in data set [2] (Concentration 8.00 mg/0.14 ml) was “Soluble”.

Turning to `C[C@@H]1C[C@H]2[C@@H]3CCC4=CC(=O)C=C[C@]4(C)[C@@]3(F)[C@@H](O)C[C@]2(C)[C@@]1(O)C(=O)COP(=O)([O-])[O-].[Na+].[Na+]` [Dexamethasone disodium phosphate], the “Solubility in purified water” value in data set [2] (Concentration 1.00 mg/0.14 ml), in data set [2] (Concentration 2.00 mg/0.14 ml), in data set [2] (Concentration 4.00 mg/0.14 ml) and in data set [2] (Concentration 8.00 mg/0.14 ml) was “Soluble” in each case.

As for `C[C@]12C=CC(=O)C=C1CC[C@H]1[C@@H]3C[C@@H](O)[C@](O)(C(=O)CO)[C@@]3(C)C[C@H](O)[C@@]12F` [triamcinolone], in data set [3], the equivalent mg dosage is recorded as 4 mg.

`C[C@H]1C[C@H]2[C@@H]3CCC4=CC(=O)C=C[C@]4(C)[C@@]3(F)[C@@H](O)C[C@]2(C)[C@@]1(O)C(=O)CO` [betamethasone]: in data set [4] (13 children), the “patients with moon face” value is 8 patients and the “patients with small increases in body weight” value was 12 patients. Also, the “adverse events in the trial” value in data set [4] (in vivo) is “minimal”. Further, the “Solubility in purified water” value in data set [2] (Concentration 0.25 mg/0.14 ml) is recorded as “Not Soluble”. In addition, the “change in phenotypic appearance (adverse effect)” value in data set [5] (4 weeks) is given as “moon face”. The “body weight at 4 weeks” value in data set [5] (from 15.5 kg) was 19.0 kg.

As to `C[C@]12C=CC(=O)C=C1CC[C@@H]1[C@@H]2[C@@H](O)C[C@@]2(C)[C@H]1CC[C@]2(O)C(=O)CO` [prednisolone], the equivalent mg dosage in data set [3] is recorded as 5 mg.

For `C[C@@H]1C[C@H]2[C@@H]3CCC4=CC(=O)C=C[C@]4(C)[C@@]3(F)[C@@H](O)C[C@]2(C)[C@@]1(O)C(=O)CO` [dexamethasone], in data set [2] (Concentration 0.25 mg/0.14 ml), the “Solubility in purified water” value was “Not Soluble”.

Turning to `C[C@]12CCC(=O)C=C1CC[C@@H]1[C@@H]2[C@@H](O)C[C@@]2(C)[C@H]1CC[C@]2(O)C(=O)CO` [hydrocortisone], in data set [3], the equivalent mg dosage is 20 mg.
